# Measured values: US7186886B2, “Aliphatic acyl transferase genes” (International Flower Developments Proprietary Limited, priority 2000, dated 2007)
# Experiments:
# [1] = Colour of anthocyanin solutions in McIlvaine buffer evaluated with Colour charts (Royal Horticulture Society); assay type: physicochemical; conditions: for Number in Colour chart at pH 5.3: McIlvaine buffer pH 5.3; for Number in Colour chart at pH 5.3 / Number in Colour chart at pH 5.6 / Number in Colour chart at pH 6.0: greater number = bluer, A = bluest within a number; for Number in Colour chart at pH 5.6: McIlvaine buffer pH 5.6; for Number in Colour chart at pH 6.0: McIlvaine buffer pH 6.0
# Protocol: Delphinidin 3,5-diglucoside, awobanin (delphinidin 3-(coumaroyl) glucoside-5-glucoside), malonyl-awobanin (delphinidin 3-(coumaroyl)glucoside-5-(malonyl) glucoside) were dissolved in McIlvaine buffer (pH 5.3, pH 5.6, pH 6.0) in concentrations of 0.1 mM, 0.3 mM, 0.5 mM, respectively, and colours of the solutions were evaluated using Colour charts (Royal Horticulture Society). Delphinidin 3,5-diglucoside can be obtained from its 3,5-diacetylglucoside form by removing the acetyl portion in alkaline hydrolysis reaction (Tetrahedron, 48, 4313–4326, 1992). Awobanin can be obtained from malonyl-awobanin by removing its 5-malonyl portion (Tetrahedron Lett. 24, 4863–4866, 1983). Malonyl-awobanin was obtained by extraction from plants using the method as set forth in Tetrahedron Lett. 24, 4863–4866, 1983. The greater the number in the Colour chart, the bluer the colour is. When the number is the same, symbol A represents the bluest colour.
# [2] = Malonyl transferase activity of E. coli-expressed gene product, shisonin as substrate, HPLC detection; assay type: biochemical
# Protocol: Measurement of activity of malonyl transferase was conducted using reaction solution 100 μl (potassium phosphate of final concentration of 20 mM, pH 7.0, containing shisonin 10 μg, malonyl CoA 10 μg, and an enzyme sample to be measured, dissolved in 0.01% trifluoro acetic acid). After reaction was carried out at 30° C. for 20 minutes, the reaction was terminated by adding 200 μl of 0.05% TFA aqueous solution cooled on ice. Quantification of shisonin and malonyl-shisonin was conducted by reverse phase high performance liquid chromatography (DYNAMAX HPLC system) using a Shodex Asahipak ODP-50 4E column, and using a linear concentration gradient with 0.5% TFA solution as the solution and 0.5% TFA, 50% acetonitrile aqueous solution as the solution, such that concentration of the B solution was 45%, 45%, 55%, 100%, 100%, 45%, and 45%, at time 0, 3, 17, 18, 23, 24, and 30 minutes, respectively, after the start of separation, at a flow rate of 0.7 ml/min, using 50 μl of reaction solution, monitoring absorption at 520 nm. […]
# Enzyme activity was measured using a supernatant (soluble fraction) obtained after centrifuging. […]
# As in Example 7, using a plasmid constructed such that the PfMaT1 gene obtained in Example 9 can be expressed as a fusion protein fused with LacZ protein, the PfMaT1 gene was expressed in Escherichia coli as in Example 7, and enzyme activity was measured. […]
Number in Colour chart at pH 5.3 ([1]; 0.1 mM) [C],Number in Colour chart at pH 5.6 ([1]; 0.1 mM),Number in Colour chart at pH 6.0 ([1]; 0.1 mM) [B],Number in Colour chart at pH 5.3 ([1]; 0.3 mM),Number in Colour chart at pH 6.0 ([1]; 0.3 mM),Number in Colour chart at pH 5.6 ([1]; 0.3 mM),Number in Colour chart at pH 5.3 ([1]; 0.5 mM),Number in Colour chart at pH 5.6 ([1]; 0.5 mM) [B],Number in Colour chart at pH 6.0 ([1]; 0.5 mM),"Colour of solution compared among the three anthocyanins ([1]; all concentrations and pH, versus delphinidin 3,5-diglucoside and awobanin)",Molecule,"Acyl transfer to shisonin with other acyl CoA substrates (new HPLC peak) ([2]; acetyl CoA, methylmalonyl CoA, or succinyl CoA in place of malonyl CoA)","Malonyl transferase activity (formation of malonyl-shisonin) ([2]; shisonin and malonyl CoA, 30° C., 20 minutes, pH 7.0, soluble extract of expressing Escherichia coli)"
85,85A,91,86D,91A,,,,,,"O=C(/C=C/c1ccc(O)cc1)OC[C@H]1O[C@@H](Oc2cc3c(O[C@@H]4O[C@H](CO)[C@@H](O)[C@H](O)[C@H]4O)cc(O)cc3[o+]c2-c2cc(O)c(O)c(O)c2)[C@H](O)[C@@H](O)[C@@H]1O [Awobanin, delphinidin 3-(coumaroyl) glucoside-5-glucoside]",,
84,84C,,85A,88C,86D,86D,90,88B/C,,"OC[C@H]1O[C@@H](Oc2cc3c(O[C@@H]4O[C@H](CO)[C@@H](O)[C@H](O)[C@H]4O)cc(O)cc3[o+]c2-c2cc(O)c(O)c(O)c2)[C@H](O)[C@@H](O)[C@@H]1O [Delphinidin 3,5-diglucoside]",,
85,91B,91,92A,96C,93B,93B,,96A,the bluest,"O=C(O)CC(=O)OC[C@H]1O[C@@H](Oc2cc(O)cc3[o+]c(-c4cc(O)c(O)c(O)c4)c(O[C@@H]4O[C@H](COC(=O)/C=C/c5ccc(O)cc5)[C@@H](O)[C@H](O)[C@H]4O)cc23)[C@H](O)[C@@H](O)[C@@H]1O [Malonyl-awobanin, delphinidin 3-(coumaroyl)glucoside-5-(malonyl) glucoside]",,
,,,,,,,,,,"SsMaT1: Salvia splendens malonyl transferase gene product (SEQ ID NO: 23), expressed in E. coli from pQE-30Xa-SsMaT1 (protein, listed as Salvia splendens, possible His tag from pQE-30Xa) TTTTILETCHIPPPPAANDLSIPLSFFDIKWLHYHPVRRLLFYHHPSSKSQFLHTIVPHLKQSLSLALTHYLPVAGNLLYPSNTEKFPQLRYAAGDSVPVTIAESNSDFESLTGNHTRDADQFYDLLPPIPPIEEESDWKLINIFAVQITLFPGEGICIGFSNHHCLGDASSIVGFISAWGEINGIGGYEGFLSNHSDSLSLPIFDRSFINDPNKIDAIFWKVLSNMPLKTASFPLPTNSVSSTFLLRSSDIEKLKTATKSPASSFVAAAAFVWSCMVKSGDKSDENAPELFIMPADASGSVDPPMPENYFGNCIVSSVAQVERGKLAAEDGFAVAAEAIGGEIEGKLKNSDEILSGAENWMSDMFKCFGMSVLGVSGSPKFDLLKADFGWGKASKLEVLSIDGENHSMSLCSSSDFNGGLEVGLSLPSESMAAFEEVFSASMMAASGPASRSPALVEPL",a new peak in addition to shisonin was observed,malonyl-shisonin was produced
